Literature values in PubChem BioAssay AID1259409 (Chemical Carcinogenesis Research Information System (CCRIS), 2018).

Test system: rodent chemically induced tumor inhibition, incidence and multiplicity
Assay: CCRIS tumor inhibitor studies
Conditions: Route [Inhibitor]: ORAL; for tumour outcome (control, treated, inhibition, significance): Promoter: NONE USED

O=[Se](O)O
tumour outcome (control, treated, inhibition, significance) (Carcinogen: AZOXYMETHANE, 25843-45-2, Dose [Inhibitor]: 2.5 PPM IN DIET BEGINNING 1 WK POST CARCINOGEN DOSE FOR DURATION OF STUDY (STUDY DURATION: 39 WK), Species: RAT, Strain/Sex: F344/MALE, Target Tissue: Type of Lesion: DUODENUM: ADENOCARCINOMA, Dose [Carcinogen]: 15 MG/KG BW 1/WK FOR 2 WK): 7/27 (26%), 8/27 (30%), -15%, not significant
tumour outcome (control, treated, inhibition, significance) (Carcinogen: AZOXYMETHANE, 25843-45-2, Dose [Inhibitor]: 2.5 PPM IN DIET BEGINNING 1 WK POST CARCINOGEN DOSE FOR DURATION OF STUDY (STUDY DURATION: 39 WK), Species: RAT, Strain/Sex: F344/MALE, Target Tissue: Type of Lesion: DUODENUM: ADENOMA, Dose [Carcinogen]: 15 MG/KG BW 1/WK FOR 2 WK): 3/27 (11%), 5/27 (19%), -73%, not significant
tumour outcome (control, treated, inhibition, significance) (Carcinogen: AZOXYMETHANE, 25843-45-2, Dose [Inhibitor]: 2.5 PPM IN DIET BEGINNING 3 WK PRIOR TO CARCINOGEN DOSE AND CONTINUING FOR 1 WK POST CARCINOGEN DOSE (STUDY DURATION: 39, Species: RAT, Strain/Sex: F344/MALE, Target Tissue: Type of Lesion: COLON: ADENOCARCINOMA, Dose [Carcinogen]: 15 MG/KG BW 1/WK FOR 2 WK): 10/27 (37%), 9/27 (33%), 11%, not significant
tumour outcome (control, treated, inhibition, significance) (Carcinogen: AZOXYMETHANE, 25843-45-2, Dose [Inhibitor]: 2.5 PPM IN DIET BEGINNING 3 WK PRIOR TO CARCINOGEN DOSE AND CONTINUING FOR 1 WK POST CARCINOGEN DOSE (STUDY DURATION: 39, Species: RAT, Strain/Sex: F344/MALE, Target Tissue: Type of Lesion: COLON: ADENOMA, Dose [Carcinogen]: 15 MG/KG BW 1/WK FOR 2 WK): 16/27 (59%), 13/27 (48%), 19%, not significant
tumour outcome (control, treated, inhibition, significance) (Carcinogen: AZOXYMETHANE, 25843-45-2, Dose [Inhibitor]: 2.5 PPM IN DIET BEGINNING 3 WK PRIOR TO CARCINOGEN DOSE AND CONTINUING FOR 1 WK POST CARCINOGEN DOSE (STUDY DURATION: 39, Species: RAT, Strain/Sex: F344/MALE, Target Tissue: Type of Lesion: DUODENUM: ADENOCARCINOMA, Dose [Carcinogen]: 15 MG/KG BW 1/WK FOR 2 WK): 7/27 (26%), 13/27 (48%), -85%, not significant
tumour outcome (control, treated, inhibition, significance) (Carcinogen: AZOXYMETHANE, 25843-45-2, Dose [Inhibitor]: 2.5 PPM IN DIET BEGINNING 3 WK PRIOR TO CARCINOGEN DOSE AND CONTINUING FOR 1 WK POST CARCINOGEN DOSE (STUDY DURATION: 39, Species: RAT, Strain/Sex: F344/MALE, Target Tissue: Type of Lesion: DUODENUM: ADENOMA, Dose [Carcinogen]: 15 MG/KG BW 1/WK FOR 2 WK): 3/27 (11%), 6/27 (22%), -100%, not significant
tumour outcome (control, treated, inhibition, significance) (Carcinogen: AZOXYMETHANE, 25843-45-2, Dose [Inhibitor]: O.5 PPM IN DIET BEGINNING 3 WK PRIOR TO CARCINOGEN DOSE AND CONTINUING FOR 1 WK POST CARCINOGEN DOSE (STUDY DURATION: 39, Species: RAT, Strain/Sex: F344/MALE, Target Tissue: Type of Lesion: COLON: ADENOCARCINOMA, Dose [Carcinogen]: 15 MG/KG BW 1/WK FOR 2 WK): 10/27 (37%), 8/27 (30%), 19%, not significant
tumour outcome (control, treated, inhibition, significance) (Carcinogen: BENZO[A]PYRENE, 50-32-8, Dose [Inhibitor]: 4 PPM IN DRINKING WATER DAILY FOR 12 MO STARTING 12 MO BEFORE CARCINOGEN TREATMENT (STUDY DURATION: 67 WK), Species: MOUSE, Strain/Sex: BALB/MALE, Target Tissue: Type of Lesion: INJECTION SITE: SARCOMA, Dose [Carcinogen]: 4 UG/G BW ONCE): 31/50 (62%), 14/50 (28%), 55%
outcome (Carcinogen: DIETHYLNITROSAMINE [55-18-5], Dose [Inhibitor]: 5 PPM IN DRINKING WATER, 3 WK AFTER PARTIAL HEPATECTOMY TO END AT 12 MO (STUDY DURATION: 12 MO), DRINKING WATER, Species: RAT, Strain/Sex: F344, Target Tissue: Type of Lesion: LIVER: TUMOR DENSITY, Dose [Carcinogen]: 200 MG/KG BW ONCE, Promoter: 2-ACETYLAMINOFLUORENE [53-96-3]): 26, 14, 46.2%, p=0.01
tumour outcome (control, treated, inhibition, significance) (Carcinogen: DIETHYLNITROSAMINE, 55-18-5, Dose [Inhibitor]: 0, 1 MG/L IN DRINKING WATER FOR DURATION OF STUDY BEGINNING 7 D PRIOR TO FIRST CARCINOGEN DOSE (STUDY DURATION: 6 MO), Species: RAT, Strain/Sex: BD6/FEMALE, Target Tissue: Type of Lesion: ESOPHAGUS: TUMOR, Dose [Carcinogen]: 80 MG/KG BW 1/WK FOR 8 WK): 30%, 0%, 100%, p<0.05
tumour outcome (control, treated, inhibition, significance) (Carcinogen: DIETHYLNITROSAMINE, 55-18-5, Dose [Inhibitor]: 0, 5 MG/L IN DRINKING WATER FOR DURATION OF STUDY BEGINNING 7 D PRIOR TO CARCINOGEN TREATMENT (STUDY DURATION: 6 MO), Species: RAT, Strain/Sex: BD6/FEMALE, Target Tissue: Type of Lesion: ESOPHAGUS: TUMOR, Dose [Carcinogen]: 80 MG/KG BW 1/WK FOR 9 WK): 50%, 51%, -2%, not significant
tumour outcome (control, treated, inhibition, significance) (Carcinogen: DIETHYLNITROSAMINE, 55-18-5, Dose [Inhibitor]: 0, 5 MG/L IN DRINKING WATER FOR DURATION OF STUDY BEGINNING 7 D PRIOR TO CARCINOGEN TREATMENT (STUDY DURATION: 6 MO), Species: RAT, Strain/Sex: BD6/FEMALE, Target Tissue: Type of Lesion: LIVER: TUMOR, Dose [Carcinogen]: 80 MG/KG BW 1/WK FOR 9 WK): 100%, 95%, 5%, not significant
tumour outcome (control, treated, inhibition, significance) (Carcinogen: DIETHYLNITROSAMINE, 55-18-5, Dose [Inhibitor]: 0, 5 MG/L IN DRINKING WATER FOR DURATION OF STUDY BEGINNING 7 D PRIOR TO FIRST CARCINOGEN DOSE (STUDY DURATION: 6 MO), Species: RAT, Strain/Sex: BD6/FEMALE, Target Tissue: Type of Lesion: ESOPHAGUS: TUMOR, Dose [Carcinogen]: 80 MG/KG BW 1/WK FOR 8 WK): 31%, 50%, -61%, not significant
tumour outcome (control, treated, inhibition, significance) (Carcinogen: DIETHYLNITROSAMINE, 55-18-5, Dose [Inhibitor]: 0, 5 MG/L IN DRINKING WATER FOR DURATION OF STUDY BEGINNING 7 D PRIOR TO FIRST CARCINOGEN DOSE (STUDY DURATION: 6 MO), Species: RAT, Strain/Sex: BD6/FEMALE, Target Tissue: Type of Lesion: LIVER: TUMOR, Dose [Carcinogen]: 80 MG/KG BW 1/WK FOR 8 WK): 94%, 94%, 0%, not significant
tumour outcome (control, treated, inhibition, significance) (Carcinogen: DIETHYLNITROSAMINE, 55-18-5, Dose [Inhibitor]: 0, 10 MG/L IN DRINKING WATER FOR DURATION OF STUDY BEGINNING 4 D POST CARCINOGEN TREATMENT (STUDY DURATION: 6 M0), Species: RAT, Strain/Sex: BD6/FEMALE, Target Tissue: Type of Lesion: LIVER: TUMOR, Dose [Carcinogen]: 80 MG/KG BW 1/WK FOR 9 WK): 100%, 96%, 4%, not significant
